The values that follow are results of earlier work, collected in patent US4873075A, “Polyiodinated triglyceride analogs as radiologic agents” (The University of Michigan, priority 1985, dated 1989).

This data set relates to liver. The conditions noted are these: background statement.

With “tetraiodotetrachlorofluorescein [^131 I-Rose Bengal]”, the “hepatic to intestinal output” value is recorded as “slow rate of hepatic to intestinal output”.
